# Values joined by “and” are separate entries in the source; they are usually repeats but may differ in a detail not shown here. Identical values can stand only once. Like-named read-outs stand apart in the source and are kept apart here.
# Columns and labels:
# MCF-7 cells [1] = experiment: Cytotoxicity assay (IC50 measurement, MTT); type: cell-based, human; conditions: MCF-7, 96 hrs
# Protocol: Cytotoxicity assay (IC50 measurement): The cytotoxicity of Fe(III)-salen and its derivatives was determined by using MTT assay as described previously^42. In brief, approximately 10,000 MCF-7 cells were seeded into each well of a 96 well micro titer plate and incubated 24 hrs in presence of 150 μL DMEM. An additional 50 μL DMEM containing required amount of each metallo-salen to obtain 0.05 to 60 μM final concentration (in 200 μL final volume) in 8 replicate wells were added. Control wells were treated with equivalent amount of DMSO. After 96 hrs of incubation, 20 μL of MTT (5 mg/mL) was added into each well and cell viability was assayed by measuring the formazan absorption at 560 nm as described above. The absorbance (at 560 nm) values were plotted against concentration of metallo-salens to determine the IC50. The studies were repeated twice with 8 replicates each time.
# The concentration of the metal-complexes at which the conversion of MTT to formazan by viable cells is reduced by 50% compared to control cells is defined as the IC50. The percent of cell survival relative to the control cells were plotted as a function of concentration of the metallo-salen derivatives.
# MCF-7 cells [2] = experiment: Cell viability assay (MTT, DIC microscopy) at 20 μM; type: cell-based, human; parameters: key to Summary of cell viability activities (active/inactive): Y and N indicates active and inactive compounds respectively; Y and N indicates active and inactive compounds respectively; conditions: for effect on cell viability (in words): up to 96 hrs; for Summary of cell viability activities (active/inactive): MCF-7 cells, 20 μM, 24-96 hrs, MTT
# Protocol: (A-F): MCF-7 cells were treated with 20 μM metallo-salens and incubated for varying time periods (24-96 hrs). Viable cells were quantified using MTT assay. The percent viable cells (relative to control, treated with equivalent amount of DMSO) were plotted as a function of time for each compound. This experiment was repeated twice with 8 replicate treatments each time. Bars indicates standard errors of mean (SEM). Curves 1-42 in FIGS. 2A-2F, represent the viability curves for compounds 1-42 respectively. (A′-F′) DIC images of the corresponding MCF-7 cells that were treated with DMSO (control panel), or with 20 μM Mn(III)- and Fe(III)-salen complexes for 72 hrs showing the visual effects on cellular morphology and growth/death.
# Cell viability assay: Approximately 10,000 MCF-7 cells were seeded into each well of a 96 well micro titer plate and incubated 24 hrs in presence of 150 μL DMEM. An additional 50 μL DMEM containing required amount of each metallo-salen to obtain 20 μM final concentrations (in 200 μL final volume) in 8 replicate wells were added. Control wells were treated with equivalent amount of dimethylsulfoxide (DMSO). The viability of the cells was assayed at 24, 48, 72 and 96 hrs post treatment by using both microscopic observation and MTT assay. For microscopic observation cells were stained with trypan blue for at least 10 minute and observed under Differential Interference Contrast (DIC) setting of a fluorescence microscope (Nikon Eclipse TE2000-U, Japan). The MTT assay was performed as described previously^42. In brief, 20 μL MTT (5 mg/ml in PBS) was added into each wells and incubated for 2 hrs under normal growth condition to allow the viable cell to convert MTT to formazan. Then the media was discarded and formazan crystals were dissolved by adding 100 μL of DMSO and incubating 2 hrs with continuous shaking. The absorbance of the lysates were directly measured at 560 nm using a micro plate reader (Fluostar-omega, BMG Labtech). The absorbance values (which are proportional to the viable cell) are plotted as a function of time. The studies were repeated twice with 8 replicates each time.
# The inventors studied the effect of Mn(III)-salen and Fe(III)-salen derivatives on the cell viability of cultured breast cancer cells MCF-7 in order to investigate the biochemical effects of the derivatives. The cells were incubated alone or with 20 μM of each of the metallo-salen derivatives separately (compounds 1-45) for varying time periods (0-96 hrs). The viable cells were quantified using MTT assay and the percent of cell survived (relative to the control untreated cells) were plotted against time (FIGS. 2A-2F).
# Animal toxicity = type: in vivo; conditions: C57B mice, intraperitoneal, 5, 10 and 20 mg/kg, twice a week for 4 weeks
# Protocol: The inventors intraperitoneally administered the Mn(III)-salen complexes (in PBS) at three different dozes (5, 10 and 20 mg/kg of mice, 6 weeks old normal C57B mice). The mice were treated twice a week for 4 weeks. After treatment, sign of toxicity were monitored (such as weight loss, mobility), animal behavior and health on a daily basis.
# [3] = system: colon cancer xenograft (CCL228 cells); experiment: Colon cancer xenograft experiment; type: in vivo; conditions: Athymic nude nu/nu mice, intraperitoneal, 10 mg/kg, twice a week
# Protocol: Athymic nude nu/nu mice carrying the colon cancer xenograft were administered with 10 mg/kg of 3,3′-dimethoxy Mn(III)-salen (compound 6), 3,3′-dihydroxy Mn(III)-salphen (compound 9) and 3,3′-dihydroxy Mn(III)-salnaphen (compound 16) at 4 days interval, for over a period of 21 days. Tumor diameters were measured using a slide caliper prior to each administration and plotted (left panel). Bar indicated standard deviation (3 replicate experiments).
# All the animal experiments were carried out using the IACUC approved protocol. For examining the efficacies of metallo-salen complexes, the inventors administered selected metallo-salen complexes in PBS intraperitoneally on Athymic nude nu/nu mice (Harlan) carrying the colon cancer xenografts. In brief, 2×10^6 human colon cancer cells (CCL228 cell in 100 μl of PBS) were injected subcutaneously (near the right back limb). Animals were examined daily for signs of tumor growth and behavior. Once the tumor size reached ˜25 mm^2 (2 to 3 weeks after injection of cells) the inventors administered the metallo-salen complexes intraperitoneally (in PBS solution, twice in a week, in three parallel replicates). Control mice were injected with equal volume of the diluents (PBS) alone. Prior to every new treatment with metallo-salen complexes, bi-dimensional measurements were carried out using calipers and cross-sectional area (tumor size) and data were plotted (FIG. 8A).
# Xenograft experiment: To test the efficacy in controlling the tumor growth, the inventors administered compound compounds, 6, 9 and 16, intraperitoneally to six week old Athymic nude nu/nu mice carrying the colon cancer xenograft. In brief, 2×10^6 human colon cancer cells (CCL228 cell in 100 μl of PBS) were injected subcutaneously (near the right back limb). Animals were examined daily for signs of tumor growth and behavior. Once the tumor size reached ˜25 mm^2 (2 to 3 weeks after injection of cells) the inventors administered compounds 6, 9, and 16 intraperitoneally (separately in PBS solution, twice a week, 10 mg/kg dose). Every study was performed in three parallel replicates. […]
# [4] = read-out: IC50 values for different complexes in MCF-7 cells
# [5] = read-out: IC50 toward MCF-7 cells
SMILES,IC50 (MCF-7 cells [1]; [4]),Summary of cell viability activities (active/inactive) (MCF-7 cells [2]),other results
"CC(=O)[O-].COc1ccc(C=NCCN=Cc2ccc(OC)cc2[O-])c([O-])c1.[Mn+3] [compound 6, 4,4′-Dimethoxysalen Mn(III) acetate]",12.3 µM,Y (6),"effect on cell viability (in words) (MCF-7 cells [2]; MCF-7, 20 μM): induced efficient cell death; animal toxicity (Animal toxicity): did not have any significant animal toxicity; survival and body weight (Animal toxicity): survived without significant loss of body weight; tumor growth in colon cancer xenograft [3]: complete arrest of tumor growth"
"CC(=O)[O-].[Mn+3].[O-]c1c(O)cccc1C=Nc1ccccc1N=Cc1cccc(O)c1[O-] [compound 9, 3,3′-Dihydroxysalphen Mn(III) acetate]",17.3 µM,Y (9),animal toxicity (Animal toxicity): did not have any significant animal toxicity; survival and body weight (Animal toxicity): survived without significant loss of body weight; tumor growth in colon cancer xenograft [3]: complete arrest of tumor growth
"CC(=O)[O-].[Mn+3].[O-]c1cc(O)ccc1C=Nc1cc2ccccc2cc1N=Cc1ccc(O)cc1[O-] [compound 17, 4,4′-Dihydroxysalnaphen Mn(III) acetate]",21.4 µM,Y (17),"effect on cell viability (in words) (MCF-7 cells [2]; MCF-7, 20 μM): effective in inducing cell death"
"CC(=O)[O-].COc1cccc(C=Nc2cc3ccccc3cc2N=Cc2cccc(OC)c2[O-])c1[O-].[Mn+3] [compound 19, 3,3′-Dimethoxysalnaphen Mn(III) acetate]",39.7 µM,Y (19),
"CC(=O)[O-].COc1ccc(C=Nc2cc3ccccc3cc2N=Cc2ccc(OC)cc2[O-])c([O-])c1.[Mn+3] [compound 20, 4,4′-Dimethoxysalnaphen Mn(III) acetate]",20.4 µM and 20.5 µM,Y (20),
"CC(=O)[O-].COc1ccc([O-])c(C=Nc2cc3ccccc3cc2N=Cc2cc(OC)ccc2[O-])c1.[Mn+3] [compound 21, 5,5′-Dimethoxysalnaphen Mn(III) acetate]",19.3 µM,Y (21),
"[Cl-].[Fe+3].[O-]c1ccccc1C=NCCN=Cc1ccccc1[O-] [compound 22, Fe(III)-salen chloride]",22.4 µM,Y (22),"effect on cell viability (in words) (MCF-7 cells [2]; MCF-7, 20 μM): highly effective in killing MCF-7 cells"
"COc1ccc([O-])c(C=NCCN=Cc2cc(OC)ccc2[O-])c1.[Cl-].[Fe+3] [compound 28, 5,5′-Dimethoxysalen Fe(III) chloride]",4.56 µM,Y (28),"cells killed in less than 24 hrs (MCF-7 cells [2]; MCF-7, 20 μM, less than 24 hrs): more than 80%; effect on cell viability (in words) (MCF-7 cells [2]; MCF-7, 20 μM): highly effective in killing MCF-7 cells"
"[Cl-].[Fe+3].[O-]c1ccccc1C=Nc1ccccc1N=Cc1ccccc1[O-] [compound 29, Fe(III)-salphen.chloride]",1.25 µM,Y (29),
"[Cl-].[Fe+3].[O-]c1c(O)cccc1C=Nc1ccccc1N=Cc1cccc(O)c1[O-] [compound 30, 3,3′-Dihydroxysalphen Fe(III) chloride]",,Y (30),IC50 (MCF-7 cells [1]; [5]): 0.33 µM
"COc1cccc(C=Nc2ccccc2N=Cc2cccc(OC)c2[O-])c1[O-].[Cl-].[Fe+3] [compound 33, 3,3′-Dimethoxysalphen Fe(III) chloride]",4.15 µM,Y (33),
"COc1ccc(C=Nc2ccccc2N=Cc2ccc(OC)cc2[O-])c([O-])c1.[Cl-].[Fe+3] [compound 34, 4,4′-Dimethoxysalphen Fe(III) chloride]",,Y (34),IC50 (MCF-7 cells [1]; [5]): 0.68 µM
"COc1ccc([O-])c(C=Nc2ccccc2N=Cc2cc(OC)ccc2[O-])c1.[Cl-].[Fe+3] [compound 35, 5,5′-Dimethoxysalphen Fe(III) chloride]",3.11 µM,Y (35),
"[Cl-].[Fe+3].[O-]c1ccccc1C=Nc1cc2ccccc2cc1N=Cc1ccccc1[O-] [compound 36, Fe(III)-salnaphen chloride]",,Y (36),IC50 (MCF-7 cells [1]; [5]): 0.54 µM
"[Cl-].[Fe+3].[O-]c1c(O)cccc1C=Nc1cc2ccccc2cc1N=Cc1cccc(O)c1[O-] [compound 37, 3,3′-Dihydroxysalnaphen Fe(III) chloride]",,Y (37),IC50 (MCF-7 cells [1]; [5]): 0.22 µM
"COc1cccc(C=Nc2cc3ccccc3cc2N=Cc2cccc(OC)c2[O-])c1[O-].[Cl-].[Fe+3] [compound 40, 3,3′-Dimethoxysalnaphen Fe(III) chloride]",1.5 µM,Y (40,
"COc1ccc(C=Nc2cc3ccccc3cc2N=Cc2ccc(OC)cc2[O-])c([O-])c1.[Cl-].[Fe+3] [compound 41, 4,4′-Dimethoxysalnaphen Fe(III) chloride]",,Y (41),IC50 (MCF-7 cells [1]; [5]): 0.53 µM

# Source: patent US8198322B2, “Apoptotic and anti-tumor activities of metallo-salens” (Board of Regents, The University of Texas System, priority 2008, dated 2012)
